{"source": "patent US20210346319A1", "about": "“Pharmaceutical Compositions of R-(+)-Propranolol in Enantiomeric Excess and Therapeutic Uses Related Thereto” (Emory University, priority 2018, published 2021)", "key": {"Angptl4 [1]": {"test_system": "Angptl4", "assay": "Western blot analysis of Angptl4 in HemSC cells"}, "Angptl4 [2]": {"test_system": "Angptl4", "conditions": "bEnd.3 cells, FIG. 1"}, "bEnd.3 hemangioma cells": {"test_system": "bEnd.3 hemangioma cells", "assay": "Seahorse analysis of respiration in bEnd.3 cells", "conditions": "for basal respiration / spare respiratory capacity: FIG. 5B; for maximal respiration: compared to vehicle control"}, "Angptl4 [3]": {"test_system": "Angptl4", "assay": "Gene array of treated hemangioma stem cells (HemSC)", "format": "cell-based, human", "conditions": "for Angptl4 gene regulation on gene array: HemSC cells vs vehicle control; for effectiveness in downregulating Angptl4 compared with S-propranolol: hemangioma stem cells"}, "bEnd.3 hemangioma": {"test_system": "bEnd.3 hemangioma", "assay": "bEnd.3 hemangioma xenograft growth in nude mice", "format": "in vivo", "conditions": "p=0.014", "procedure": "The xenograft model was developed and approved by the Institutional Animal Care and Use Committee of Emory University. bEnd.3 cell suspension in growth medium was inoculated in the right flank of athymic Nu/Nu nude male mice purchased from the Charles River Laboratories at 2.5×10^5 cells/mouse (n=5 per group). Control or R-propranolol was administered intraperitoneally five times a week at 3.5 mg/kg/day. R-propranolol treatment was initiated on the second day after the tumor cell injection.\nTo elucidate the signaling cascade independent of beta blockade in hemangioma formation, tie-2-deficient mouse hemangioma cell line, bEnd.3 was xenografted and treated with or without R-propranolol, isomer deficient in beta blockade activity."}, "Angptl4 [4]": {"test_system": "Angptl4", "assay": "Downregulation of VEGF/Angptl4 by propranolol and its isomers (summary statements)", "format": "cell-based"}, "bEnd.3 tumors": {"test_system": "bEnd.3 tumors", "assay": "RNAseq analysis of R-propranolol vs vehicle treated tumors", "format": "in vivo, mice", "from_the_text": "In order to gain an understanding of the mechanism of action of R-propranolol in vivo, vehicle and R-propranolol treated tumors were subjected to RNA seq analysis. […] The APOA1 gene expresses a protein called apolipoprotein A-I (apoA-I). ApoA-I is a component of high-density lipoprotein (HDL) which transports cholesterol and phospholipids through the bloodstream for excretion by the liver beneficial for cardiovascular health."}, "Angiopoietin-2 (Ang-2)": {"test_system": "Angiopoietin-2 (Ang-2)", "assay": "Ang-2 levels in infants receiving propranolol for hemangioma of infancy", "format": "in vivo, human", "conditions": "saliva of infants with hemangiomas", "from_the_text": "(§1) Genetic studies of hemangiomas have not elucidated a common genetic cause, as opposed to other vascular lesions, such as vascular malformations and angiosarcomas, in which genetic mutations have been found. Cytokines have been found in hemangiomas of infancy, including vascular endothelial growth factor (VEGF) and Angiopoietin-2 (Ang-2). The role of these factors in hemangiomas are not fully understood, especially given that Ang-2 can serve as a growth factor or mediate endothelial apoptosis depending on the context. A series of infants were studied who received propranolol for treatment of hemangioma of infancy."}, "VEGF": {"test_system": "VEGF", "assay": "VEGF levels in infants receiving propranolol for hemangioma of infancy", "format": "in vivo, human", "conditions": "saliva of infants with hemangiomas, hydrochloride", "from_the_text": "as §1"}, "hemangioma of infancy": {"test_system": "hemangioma of infancy", "conditions": "infant who received propranolol for cardiac disease; cited from earlier work"}, "[5]": {"conditions": "RNAseq treated vs vehicle tumors"}}, "note": "Entries after “also recorded” stand apart in the source; their conditions may differ.", "data": [{"smiles": "CC(C)NCC(O)COc1cccc2ccccc12", "note": "(stereo not drawn) [S-propranolol, reference compound]", "values": [{"measurement": "Angptl4 expression, Western blot", "setting": "Angptl4 [1]; FIG. 1", "result": "not"}, {"measurement": "Angptl4 expression, Western blot", "setting": "Angptl4 [1]; FIG. 1, listed as S isomer", "result": "had no effect"}, {"measurement": "Angptl4 protein expression", "setting": "Angptl4 [2]", "result": "slightly elevated"}, {"measurement": "basal respiration", "setting": "bEnd.3 hemangioma cells", "result": "increased"}, {"measurement": "spare respiratory capacity", "setting": "bEnd.3 hemangioma cells", "result": "increased"}, {"measurement": "maximal respiration", "setting": "bEnd.3 hemangioma cells; FIG. 5A", "result": "substantially increased"}, {"measurement": "Angptl4 gene regulation on gene array", "setting": "Angptl4 [3]", "result": "downregulated; also recorded: most regulated gene"}]}, {"smiles": "CC(C)NC[C@@H](O)COc1cccc2ccccc12", "note": "[R-propranolol, (R)-(+)-1-(isopropylamino)-3-(naphthalen-1-yloxy)propan-2-ol]", "values": [{"measurement": "tumor volume", "setting": "bEnd.3 hemangioma; 3.5 mg/kg/day intraperitoneally five times a week, control 593.32, n=5 per group", "result": 37.60, "unit": "mm3"}, {"measurement": "effect on bEnd.3 hemangioma tumor growth in vivo", "setting": "bEnd.3 hemangioma; xenograft in mice, within two weeks of tumor development", "result": "active in vivo; also recorded: significant tumor volume reduction; also recorded: significantly reduced the tumor volume; also recorded: inhibited the growth; also recorded: significant inhibition of tumor growth"}, {"measurement": "Angptl4 expression, Western blot", "setting": "Angptl4 [1]; FIG. 1", "result": "reduced expression of Angptl4"}, {"measurement": "Angptl4 expression, Western blot", "setting": "Angptl4 [1]; FIG. 1, listed as R-isomer", "result": "suppressed Angptl4"}, {"measurement": "Angptl4 protein expression", "setting": "Angptl4 [2]", "result": "markedly reduced"}, {"measurement": "activity against Angptl4 compared with S-propranolol", "setting": "Angptl4 [4]; endothelial cells", "result": "greater downregulation; also recorded: more active"}, {"measurement": "APOA1 expression", "setting": "bEnd.3 tumors; [5]", "result": "induced; also recorded: upregulated"}, {"measurement": "BHMT expression", "setting": "bEnd.3 tumors; [5]", "result": "most highly regulated gene; also recorded: upregulated; also recorded: most upregulated"}, {"measurement": "Egr-1 expression", "setting": "bEnd.3 tumors; [5]", "result": "elevated; also recorded: upregulated"}, {"measurement": "choline metabolism pathway (KEGG analysis)", "setting": "bEnd.3 tumors; [5]", "result": "the pathway affected; also recorded: highly affected"}, {"measurement": "Eno4 expression", "setting": "bEnd.3 tumors; RNAseq, FIG. 4", "result": "downregulated"}, {"measurement": "Faim2 expression", "setting": "bEnd.3 tumors; RNAseq, FIG. 4", "result": "downregulated"}, {"measurement": "Hunk expression", "setting": "bEnd.3 tumors; RNAseq, FIG. 4", "result": "downregulated"}, {"measurement": "number of RNA transcripts significantly downregulated", "setting": "bEnd.3 tumors; RNAseq, FIG. 4", "result": "Seven"}, {"measurement": "number of RNA transcripts upregulated", "setting": "bEnd.3 tumors; RNAseq, FIG. 4", "result": "seventeen"}, {"measurement": "respiration compared with S-propranolol", "setting": "bEnd.3 hemangioma cells; FIG. 5A", "result": "stronger respiration"}, {"measurement": "basal respiration", "setting": "bEnd.3 hemangioma cells", "result": "increased"}, {"measurement": "spare respiratory capacity", "setting": "bEnd.3 hemangioma cells", "result": "increased"}, {"measurement": "maximal respiration", "setting": "bEnd.3 hemangioma cells; FIG. 5A", "result": "substantially increased"}, {"measurement": "Angptl4 gene regulation on gene array", "setting": "Angptl4 [3]", "result": "downregulated; also recorded: most regulated gene"}, {"measurement": "effectiveness in downregulating Angptl4 compared with S-propranolol", "setting": "Angptl4 [3]", "result": "far more effective"}, {"measurement": "effectiveness in downregulating Angptl4 compared with S-propranolol", "setting": "Angptl4 [3]; listed as R(+)-propranolol", "result": "More Effective"}]}, {"smiles": "CC(C)NCC(O)COc1cccc2ccccc12.Cl", "note": "(racemic) [propranolol, (±)-1-[(1-methylethyl)amino]-3-(1-naphthalenyloxy)-2-propanol hydrochloride]", "values": [{"measurement": "Ang-2 levels", "setting": "Angiopoietin-2 (Ang-2)", "result": "not"}, {"measurement": "VEGF levels", "setting": "VEGF", "result": "reduced"}, {"measurement": "VEGF levels", "setting": "VEGF; listed as Propranolol", "result": "downregulates"}, {"measurement": "VEGF/Angplt4 downregulation", "setting": "Angptl4 [4]", "result": "coordinately downregulates"}, {"measurement": "N4RA1 (Nur77) expression", "setting": "bEnd.3 tumors; [5]", "result": "upregulated"}, {"measurement": "hemangioma of infancy, clinical course", "setting": "hemangioma of infancy", "result": "regression"}]}, {"smiles": "CN(C)c1ccc(C(=C2C=CC(=[N+](C)C)C=C2)c2ccc(N(C)C)cc2)cc1", "note": "[gentian violet]", "values": [{"measurement": "Angptl4 expression, Western blot", "setting": "Angptl4 [1]; FIG. 1", "result": "suppressed Angptl4"}, {"measurement": "Angptl4 expression, Western blot", "setting": "Angptl4 [1]; FIG. 1, listed as Gentian violet", "result": "downregulated Angptl4"}, {"measurement": "Angptl4 protein expression", "setting": "Angptl4 [2]", "result": "much reduced"}, {"measurement": "Angptl4 gene regulation on gene array", "setting": "Angptl4 [3]", "result": "downregulated; also recorded: most regulated gene"}]}]}
